From US12274264B2, “Piperonylic acid derivative and application thereof” (SHENYANG SINOCHEM AGROCHEMICALS R&D CO., LTD., priority 2019, dated 2025)
Where two headings read alike, the source gives them in different places.

Tests used:
[1] = system: Tribolium confusum adults; assay: Determination of Tribolium confusum adults (treated feeding bran, 72 h); assay type: in vivo; settings: 72 h, read-out: Mortality (%) against Tribolium Confusum Adults
Procedure: (§1) According to the solubility of test compounds, the compounds are dissolved with acetone or dimethyl sulfoxide, and then diluted with 0.1% Tween 80 solution to form a required concentration of 50 ml test liquid. The content of the acetone or the dimethyl sulfoxide in the total solution is not more than 10%.
The test liquid was prepared in the order from low dose to high dose according to the test design. Then, the liquid of different concentrations was added to feeding bran and uniformly stirred, and dried in the shade. Then, the resulting feeding bran was collected in a paper cup. Fifty Tribolium confusum adults with consistent size were put in the paper cup. Three replicates were set for each treatment. Control check was set. The treated test materials were put in an observation room under controlled conditions. After 72 h, the number of dead and surviving adults was investigated.

[2] = system: Tetranychus cinnabarinus adults; assay: Determination of acaricidal activity (spray on bean plant leaves with adult spider mites, mortality after 72 hours); assay type: in vivo; settings: read-out: Mortality (%) against Tetranychus Cinnabarinus Adult
Procedure: as §1
The adult spider mites were put into two true leaves of bean plants. After the number of mites was investigated, the solution of certain concentrations of test compounds was sprayed by using a handheld Airbrush. Three replicates were set for each treatment. Then the leaves were maintained in a standard observation room. After 72 hours, the number of surviving mites was investigated, and the mortality rate was calculated. Compounds I-41, KC3, KC4 and MC were selected for parallel determination of activity against Tetranychus cinnabarinus adults.

Spodoptera litura = settings: concentration of 1 ppm; cited from earlier work
[3] = system: western flower thrips nymphs; assay: Determination of activity against western flower thrips nymphs (sprayed kidney bean leaves, mortality after 72 hours); assay type: in vivo; settings: Frankliniella occidentalis, read-out: Mortality (%) against Western Flower Thrips Nymphs
Procedure: as §1
Fresh kidney bean leaves cultured in the glasshouse were selected and uniformly sprayed with 1 ml of the test liquid by using a handheld Airbrush. The leaves were dried naturally and placed in a test tube. Fifteen tidy and healthy western flower thrips nymphs were put into the leaves. Three replicates were set for each treatment. The water treatment was set as control check. After the treatment, the treated tube were placed in a chamber of 24° C., 60%-70% relative humidity and day light. After 72 hours, the number of surviving insects was investigated, and the mortality was calculated.

Plutella xylostella [4] = settings: concentration of 1 ppm; cited from earlier work
Plutella xylostella [5] = settings: concentration of 200 ppm; cited from earlier work
trips tabaci = settings: concentration of 200 ppm; cited from earlier work
Spodoptera littoralis = settings: concentration of 200 ppm; cited from earlier work
Tetranychus urticae koch = settings: concentration of 200 ppm; cited from earlier work

Row | SMILES | mortality at 5 µg/mL [1] | mortality at 20 µg/mL [1] | mortality at 10 µg/mL ([2]; 72 h) | mortality at 100 µg/mL ([2]; 72 h) | mortality at 600 µg/mL ([2]; 72 h) | activities against Spodoptera litura (Spodoptera litura) | mortality at 10 µg/mL ([3]; 72 h) | mortality at 100 µg/mL ([3]; 72 h) | activities against Plutella xylostella (Plutella xylostella [4]) | activities against Plutella xylostella (Plutella xylostella [5]) | activities against trips tabaci (trips tabaci) | activities against Spodoptera littoralis (Spodoptera littoralis) | activities against Tetranychus urticae koch (Tetranychus urticae koch) | mortality at 10 µg/mL ([2]; 10 mg/L, after 72 hours) | mortality at 100 µg/mL ([2]; 100 mg/L, after 72 hours) | mortality at 600 µg/mL ([2]; 600 mg/L, after 72 hours) | mortality at 10 µg/mL ([3]; 10 mg/L, after 72 hours) | mortality at 100 µg/mL ([3]; 100 mg/L, after 72 hours)
1 | CN(C(=O)c1ccccc1)c1cccc(C(=O)Nc2c(Br)cc(C(F)(C(F)(F)F)C(F)(F)F)cc2C(F)(F)F)c1F [KC3, Broflanilide] | 69% | 80% | 0% | 0% | 0% | greater than or equal to 70% | 33% | 60% | greater than or equal to 70% | – | – | – | – | – | – | – | – | –
2 | O=C(Nc1cccc(C(=O)Nc2c(Br)cc(C(F)(C(F)(F)F)C(F)(F)F)cc2OC(F)F)c1F)c1ccccc1 [KC4] | – | – | – | – | – | – | – | – | – | greater than or equal to 80% | greater than or equal to 80% | greater than or equal to 80% | greater than or equal to 80% | 0% | 0% | 0% | 37% | 52%
